Where two headings read alike, the source gives them in different places.
Experiments:
Type in all cases: in vivo, mice
MRI-H-254 tumors = conditions: for % T/C on day 17 / % T/C on day 20 / % T/C on day 24 / % T/C on day 27 / % T/C on day 32 / % T/C on day 35 / % T/C on day 39 / % T/C on day 47: doxorubicin 6 IP
Procedure: Female athymic nude mice (Harlan Sprague Dawley, Madison, Wis.) were utilized for all experiments. Animals were housed in ventilated rack caging with food and water ad libitum. The mice were acclimated for at least 5 days prior to tumor implantation with tumor fragments. The Vehicle Control group contained 11 mice, groups 2-6 contained 8 mice/group, and the rest of groups contained 9 mice/group.
This cell line was grown and implanted to the animals as described in Example 11.
Tumor measurements were determined as disclosed in Example 4. […] Treatments were initiated on DPI 17.
PM00104 was provided in the form of vials of lyophilized PM00104 powder which was reconstituted with water for injection.
(§1) Tumor size measurements were recorded twice weekly from the treatment initiation until the termination of the study.
(§2) Mean, standard deviation and standard error of the mean were determined for tumor volume for all animal groups at all assessments. Student's t test was performed on tumor volumes at each measurement day, including at the end of the study, to determine whether there were any statistically significant differences between combination treatment groups and single monotherapy treatment groups.
The definition and criteria for the evaluation of potentiation and the degree of additivity for the combination therapy were the same as those disclose in Example 4.

CaLu-6 tumors = conditions: PM00104 0.9 mg/kg/day IV and/or Gemcitabine 180 mg/kg/day IP
Procedure: Female athymic nude mice (Harlan Sprague Dawley, Madison, Wis.) were utilized for all experiments. Animals were housed in ventilated rack caging with food and water ad libitum. The mice were acclimated for at least 5 days prior to tumor implantation.
The tumor model used in this study was CaLu-6 cell line which is a human lung cancer cell line obtained from the ATCC (Manassas, Va.). CaLu-6 cells were grown in Eagle's Minimum Essential Medium (MEM), 10% FBS and 2 mM L-glutamine. Cells from in vitro passage 12 were implanted SC into study mice using a 1 ml syringe with a 13G trocar: 5×10^6 cells/mouse in 0.2 ml 50% Matrigel/50% MEM medium of CaLu-6 without serum or antibiotics. Bacterial culture was taken on cells used to implant the study.
When tumors reached an appropriated volume, within the size range of 99±17 mm^3 (mean±SD), mice were randomized into the treatment and control groups based on tumor weight by using LabCat® In Life module V 8.0 SP1 tumor tracking and measurement software. Treatments were initiated on DPI 9.
Tumor size measurements were recorded 2-3 times/week from the treatment initiation until the termination of the study.
as §2

BxPC-3 tumors = conditions: mg/kg/day: PM00104 0.90 IV
Procedure: Female CB17.SCID mice (Charles River Lab.) were utilized for all experiments. Animals were housed in ventilated rack caging with food and water ad libitum. The mice were acclimated for at least 5 days prior to tumor implantation with a tumor cell suspension.
The tumor model used in these studies was BxPC-3 cell line, which was obtained from the ATCC (Manassas, Va.).
Treatments were initiated on DPI 9.
as §1, §2

[1] = PM00104 0.23 IV, paclitaxel 12.5 IP mg/kg/day (G4, G11, G12)
[2] = PM00104 0.45 IV, paclitaxel 12.5 IP mg/kg/day (G3, G9, G10)
[3] = PM00104 0.90 IV, paclitaxel 12.5 IP mg/kg/day (G2, G5, G6, G7, G8)

COc1c(C)cc2c(c1O)[C@@H]1[C@@H]3Cc4c(OC(C)=O)c(C)c5c(c4[C@H](CNC(=O)/C=C/c4cccc(C(F)(F)F)c4)N3[C@@H](O)[C@H](C2)N1C)OCO5 [PM00104]
% T/C on day 17 (MRI-H-254 tumors; [1]): 97.5%
% T/C on day 20 (MRI-H-254 tumors; [1]): 113.0%
% T/C on day 24 (MRI-H-254 tumors; [1]): 89.9%
% T/C on day 27 (MRI-H-254 tumors; [1]): 75.9%
% T/C on day 32 (MRI-H-254 tumors; [1]): 72.7%
% T/C on day 35 (MRI-H-254 tumors; [1]): 62.4%
% T/C on day 39 (MRI-H-254 tumors; [1]): 57.6%
% T/C on day 47 (MRI-H-254 tumors; [1]): 66.8%
% T/C on day 17 (MRI-H-254 tumors; [2]): 100.0%
% T/C on day 20 (MRI-H-254 tumors; [2]): 109.2%
% T/C on day 24 (MRI-H-254 tumors; [2]): 91.3%
% T/C on day 27 (MRI-H-254 tumors; [2]): 71.0%
% T/C on day 32 (MRI-H-254 tumors; [2]): 51.8%
% T/C on day 35 (MRI-H-254 tumors; [2]): 38.4%
% T/C on day 39 (MRI-H-254 tumors; [2]): 31.8%
% T/C on day 47 (MRI-H-254 tumors; [2]): 21.5%
% T/C on day 17 (MRI-H-254 tumors; [3]): 98.5%
% T/C on day 20 (MRI-H-254 tumors; [3]): 95.6%
% T/C on day 24 (MRI-H-254 tumors; [3]): 56.9%
% T/C on day 27 (MRI-H-254 tumors; [3]): 46.4%
% T/C on day 32 (MRI-H-254 tumors; [3]): 31.2%
% T/C on day 35 (MRI-H-254 tumors; [3]): 22.6%
% T/C on day 39 (MRI-H-254 tumors; [3]): 14.5%
% T/C on day 47 (MRI-H-254 tumors; [3]): 9.5%
% Inhibition (MRI-H-254 tumors; day 14, PM00104 0.23, doxorubicin 6, paclitaxel 12.5 mg/kg/day): 2.5%
% Inhibition (MRI-H-254 tumors; day 14, PM00104 0.45, doxorubicin 6, paclitaxel 12.5 mg/kg/day): 0.0%
% Inhibition (MRI-H-254 tumors; day 14, PM00104 0.90, paclitaxel 12.5 mg/kg/day): 1.5%
% Inhibition (MRI-H-254 tumors; day 14, PM00104 0.9 and doxorubicin 6 mg/kg/day): 1.5%
% Inhibition (MRI-H-254 tumors; day 20, PM00104 0.23, doxorubicin 6, paclitaxel 12.5 mg/kg/day): −13.0%
% Inhibition (MRI-H-254 tumors; day 20, PM00104 0.45, doxorubicin 6, paclitaxel 12.5 mg/kg/day): −9.2%
% Inhibition (MRI-H-254 tumors; day 20, PM00104 0.90, paclitaxel 12.5 mg/kg/day): 4.4%
% Inhibition (MRI-H-254 tumors; day 20, PM00104 0.9 and doxorubicin 6 mg/kg/day): 4.4%
% Inhibition (MRI-H-254 tumors; day 24, PM00104 0.23, doxorubicin 6, paclitaxel 12.5 mg/kg/day): 10.1%
% Inhibition (MRI-H-254 tumors; day 24, PM00104 0.45, doxorubicin 6, paclitaxel 12.5 mg/kg/day): 8.7%
% Inhibition (MRI-H-254 tumors; day 24, PM00104 0.90, paclitaxel 12.5 mg/kg/day): 43.1%
% Inhibition (MRI-H-254 tumors; day 24, PM00104 0.9 and doxorubicin 6 mg/kg/day): 43.1%
% Inhibition (MRI-H-254 tumors; day 27, PM00104 0.23, doxorubicin 6, paclitaxel 12.5 mg/kg/day): 24.1%
% Inhibition (MRI-H-254 tumors; day 27, PM00104 0.45, doxorubicin 6, paclitaxel 12.5 mg/kg/day): 29.0%
% Inhibition (MRI-H-254 tumors; day 27, PM00104 0.90, paclitaxel 12.5 mg/kg/day): 53.6%
% Inhibition (MRI-H-254 tumors; day 27, PM00104 0.9 and doxorubicin 6 mg/kg/day): 53.6%
% Inhibition (MRI-H-254 tumors; day 32, PM00104 0.23, doxorubicin 6, paclitaxel 12.5 mg/kg/day): 27.3%
% Inhibition (MRI-H-254 tumors; day 32, PM00104 0.45, doxorubicin 6, paclitaxel 12.5 mg/kg/day): 48.2%
% Inhibition (MRI-H-254 tumors; day 32, PM00104 0.90, paclitaxel 12.5 mg/kg/day): 68.8%
% Inhibition (MRI-H-254 tumors; day 32, PM00104 0.9 and doxorubicin 6 mg/kg/day): 68.8%
% Inhibition (MRI-H-254 tumors; day 35, PM00104 0.23, doxorubicin 6, paclitaxel 12.5 mg/kg/day): 37.6%
% Inhibition (MRI-H-254 tumors; day 35, PM00104 0.45, doxorubicin 6, paclitaxel 12.5 mg/kg/day): 61.6%
% Inhibition (MRI-H-254 tumors; day 35, PM00104 0.90, paclitaxel 12.5 mg/kg/day): 77.4%
% Inhibition (MRI-H-254 tumors; day 35, PM00104 0.9 and doxorubicin 6 mg/kg/day): 77.4%
% Inhibition (MRI-H-254 tumors; day 39, PM00104 0.23, doxorubicin 6, paclitaxel 12.5 mg/kg/day): 42.4%
% Inhibition (MRI-H-254 tumors; day 39, PM00104 0.45, doxorubicin 6, paclitaxel 12.5 mg/kg/day): 68.2%
% Inhibition (MRI-H-254 tumors; day 39, PM00104 0.90, paclitaxel 12.5 mg/kg/day): 85.5%
% Inhibition (MRI-H-254 tumors; day 39, PM00104 0.9 and doxorubicin 6 mg/kg/day): 85.5%
% Inhibition (MRI-H-254 tumors; day 47, PM00104 0.23, doxorubicin 6, paclitaxel 12.5 mg/kg/day): 33.2%
% Inhibition (MRI-H-254 tumors; day 47, PM00104 0.45, doxorubicin 6, paclitaxel 12.5 mg/kg/day): 78.5%
% Inhibition (MRI-H-254 tumors; day 47, PM00104 0.90, paclitaxel 12.5 mg/kg/day): 90.5%
% Inhibition (MRI-H-254 tumors; day 47, PM00104 0.9 and doxorubicin 6 mg/kg/day): 90.5%
% T/C on day 9 (CaLu-6 tumors): 102.6%
% T/C on day 12 (CaLu-6 tumors): 77.9%
% T/C on day 15 (CaLu-6 tumors): 78.8%
% T/C on day 19 (CaLu-6 tumors): 90.6%
% T/C on day 22 (CaLu-6 tumors): 87.8%
% T/C on day 26 (CaLu-6 tumors): 87.6%
% T/C on day 29 (CaLu-6 tumors): 73.5%
% T/C on day 34 (CaLu-6 tumors): 75.8%
% T/C on day 40 (CaLu-6 tumors): 88.3%
% Inhibition (BxPC-3 tumors; day 9, erlotinib 15 PO): −3.8%
% Inhibition (BxPC-3 tumors; day 9, erlotinib 30 PO): −3.8%
% Inhibition (BxPC-3 tumors; day 9, erlotinib 50 PO): −3.8%
% T/C on day (BxPC-3 tumors; day 9, erlotinib 50 PO): 103.8%
% Inhibition (BxPC-3 tumors; day 12, erlotinib 15 PO): 10.0%
% Inhibition (BxPC-3 tumors; day 12, erlotinib 30 PO): 10.0%
% Inhibition (BxPC-3 tumors; day 12, erlotinib 50 PO): 10.0%
% T/C on day (BxPC-3 tumors; day 12, erlotinib 50 PO): 90.0%
% Inhibition (BxPC-3 tumors; day 15, erlotinib 15 PO): −20.0%
% Inhibition (BxPC-3 tumors; day 15, erlotinib 30 PO): −20.0%
% Inhibition (BxPC-3 tumors; day 15, erlotinib 50 PO): −20.0%
% T/C on day (BxPC-3 tumors; day 15, erlotinib 50 PO): 120.0%
% Inhibition (BxPC-3 tumors; day 19, erlotinib 15 PO): 1.4%
% Inhibition (BxPC-3 tumors; day 19, erlotinib 30 PO): 1.4%
% Inhibition (BxPC-3 tumors; day 19, erlotinib 50 PO): 1.4%
% T/C on day (BxPC-3 tumors; day 19, erlotinib 50 PO): 98.6%
% Inhibition (BxPC-3 tumors; day 21, erlotinib 15 PO): 30.1%
% Inhibition (BxPC-3 tumors; day 21, erlotinib 30 PO): 30.1%
% Inhibition (BxPC-3 tumors; day 21, erlotinib 50 PO): 30.1%
% T/C on day (BxPC-3 tumors; day 21, erlotinib 50 PO): 69.9%
% Inhibition (BxPC-3 tumors; day 26, erlotinib 15 PO): 17.4%
% Inhibition (BxPC-3 tumors; day 26, erlotinib 30 PO): 17.4%
% Inhibition (BxPC-3 tumors; day 26, erlotinib 50 PO): 17.4%
% T/C on day (BxPC-3 tumors; day 26, erlotinib 50 PO): 82.6%
% Inhibition (BxPC-3 tumors; day 29, erlotinib 15 PO): 30.6%
% Inhibition (BxPC-3 tumors; day 29, erlotinib 30 PO): 30.6%
% Inhibition (BxPC-3 tumors; day 29, erlotinib 50 PO): 30.6%
% T/C on day (BxPC-3 tumors; day 29, erlotinib 50 PO): 69.4%
% Inhibition (BxPC-3 tumors; day 33, erlotinib 15 PO): 17.8%
% Inhibition (BxPC-3 tumors; day 33, erlotinib 30 PO): 17.8%
% Inhibition (BxPC-3 tumors; day 33, erlotinib 50 PO): 17.8%
% T/C on day (BxPC-3 tumors; day 33, erlotinib 50 PO): 82.2%
% Inhibition (BxPC-3 tumors; day 40, erlotinib 15 PO): 14.2%
% Inhibition (BxPC-3 tumors; day 40, erlotinib 30 PO): 14.2%
% Inhibition (BxPC-3 tumors; day 40, erlotinib 50 PO): 14.2%
% T/C on day (BxPC-3 tumors; day 40, erlotinib 50 PO): 85.8%

Reference: US20110070232A1, “Combination Therapy with an Antitumor Alkaloid” (Pharma Mar, S.A., priority 2008, published 2011)
